pEC50, pIC50: −log10 of the molar value.
Key:
[1] = tested on: histone deacetylase in nuclear extracts from H446 cells (pooled HDACs); assay: Inhibition of histone deacetylase in H446 nuclear extracts ([3H]-acetylated histone substrate); assay type: biochemical, human; conditions: H446 nuclear extract
[2] = tested on: acetylated histone H-4 in T24 human bladder cancer cells; assay: Histone H4 acetylation in whole cells by immunoblots; assay type: cell-based; conditions: T-24, read-out: EC50, concentration effective for increasing the acetylated H-4 signal by 50%, 16 hours incubation, immunoblot densitometry
Procedure: T24 human bladder cancer cells growing in culture are incubated with HDAC inhibitors for 16 hours. […] of total histone protein are loaded onto SDS/PAGE and transferred to nitrocellulose membranes. Membranes are probed with polyclonal antibodies specific for acetylated histone H-4 (Upstate Biotech Inc.), followed by horse radish peroxidase conjugated secondary antibodies (Sigma). Enhanced Chemiluminescence (ECL) (Amersham) detection is performed using Kodak films (Eastman Kodak). Acetylated H-4 signal is quantified by densitometry.

[3] = biological target: recombinant human HDAC-1 enzyme (rHDAC-1) (Homo sapiens (Human), UniProt Q13547); assay: Inhibition of recombinant human HDAC-1 ([3H]-acetylated histone substrate); assay type: biochemical; conditions: Table 4, recombinant human HDAC-1
Chain of recombinant human HDAC-1 enzyme (rHDAC-1) (Q13547 whole entry): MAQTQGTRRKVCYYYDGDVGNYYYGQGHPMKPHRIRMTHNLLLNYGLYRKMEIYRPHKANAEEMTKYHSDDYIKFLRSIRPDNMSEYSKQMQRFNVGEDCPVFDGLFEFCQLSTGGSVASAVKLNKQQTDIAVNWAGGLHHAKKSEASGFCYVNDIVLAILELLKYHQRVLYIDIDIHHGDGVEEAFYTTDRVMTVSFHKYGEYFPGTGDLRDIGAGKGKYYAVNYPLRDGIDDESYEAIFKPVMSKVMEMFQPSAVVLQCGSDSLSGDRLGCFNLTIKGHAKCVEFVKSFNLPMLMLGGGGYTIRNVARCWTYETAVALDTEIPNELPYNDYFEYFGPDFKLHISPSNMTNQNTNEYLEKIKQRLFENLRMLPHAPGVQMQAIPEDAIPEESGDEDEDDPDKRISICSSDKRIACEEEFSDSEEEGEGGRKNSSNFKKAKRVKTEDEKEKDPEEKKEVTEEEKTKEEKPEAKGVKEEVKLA

SMILES | pIC50 [1] | pEC50 [2] | pIC50 [3] | pooled HDACs percent inhibition ([1]; @ 1 μM) [% @ 1 μM]
O=C(/C=C/c1ccc(NS(=O)(=O)c2ccccc2)cc1)NO [Compound 36, N-Hydroxy-3-[4-(benzenesulfonylamino)-phenyl]-2-propenamide] | 6.30 | 5.30 | – | –
COc1ccc(S(=O)(=O)Nc2ccc(/C=C/C(=O)NO)cc2)cc1OC [Compound 90] | 6.40 | 6.00 | – | –
O=C(/C=C/c1ccc(NS(=O)(=O)c2ccc(-c3ccccc3)cc2)cc1)NO [Compound 120] | 6.92 | 6.00 | 8.00 | –

Continued, in another order:

pIC50 [1] | pEC50 [2] | pIC50 [3] | SMILES | pooled HDACs percent inhibition ([1]; @ 1 μM) [% @ 1 μM]
– | 5.30 | 5.30 | Nc1ccccc1NC(=O)/C=C/c1ccc(NS(=O)(=O)c2cccc3ccccc23)cc1 [Compound 107] | 0
– | 5.70 | – | COc1ccc(S(=O)(=O)Nc2ccc(/C=C/C(=O)Nc3ccccc3N)cc2)cc1 [Compound 122] | –

— patent publication US8796330B2, “Inhibitors of histone deacetylase and prodrugs thereof” (Methylgene Inc., priority 2006, dated 2014)
